In brackets after ≈: the same amount, converted by molar mass. Like-named read-outs stand apart in the source and are kept apart here.
Columns and labels:
Assay type in all cases: cell-based
P. vulgaris HX-19 = assay: in vitro antibacterial activity, agar plate dilution method (MIC); conditions: for MIC: Proteus vulgaris, read-out: Minimum Inhibitory Concentration (MIC)
Procedure: (§1) One platinum loopfull of each test microorganism incubated overnight in Mueller Hinton broth, was inoculated to Mueller Hinton agar (inoculum size: 10^6 CFU/ml). Such culture media containing various antibiotics in various concentrations were prepared. After incubation at 37° C. for 16 hours, the minimum inhibitory concentrations (MIC: μg/ml) were measured.

S. aureus 209P NIHJ-JCl = assay: as above; conditions: for MIC: Staphylococcus aureus, read-out: Minimum Inhibitory Concentration (MIC)
Procedure: as §1

E. cloacae 963 = assay: as above; conditions: for MIC: read-out: Minimum Inhibitory Concentration (MIC)
Procedure: as §1

S. marcescens IAM 1184 = assay: as above; conditions: for MIC: Serratia marcescens, read-out: Minimum Inhibitory Concentration (MIC)
Procedure: as §1

E. coli NIHJ JC2 = assay: as above; conditions: for MIC: Escherichia coli, read-out: Minimum Inhibitory Concentration (MIC)
Procedure: as §1

K. pneumoniae PCI-602 = assay: as above; conditions: for MIC: Klebsiella pneumoniae, read-out: Minimum Inhibitory Concentration (MIC)
Procedure: as §1

S. aureus 109P NIHJ-JCl = assay: in vitro antibacterial activity, agar plate dilution method (MIC), second part of Table 1; conditions: Staphylococcus aureus, 109PNIHJJCL, read-out: Minimum Inhibitory Concentration (MIC)
Procedure: as §1

[1] = Enterobacter cloacae, 963, 16 h
[2] = HX19, P. vulgaris HX-19, 10^6 CFU/ml, MH agar, 37° C., 16 hours
[3] = Enterobacter cloacae, E. cloacae 963, 10^6 CFU/ml, MH agar, 37° C., 16 hours
[4] = IAM1184, S. marcescens IAM 1184, 10^6 CFU/ml, MH agar, 37° C., 16 hours
[5] = NIHJJC2, E. coli NIHJ JC2, 10^6 CFU/ml, MH agar, 37° C., 16 hours
[6] = PCI602, K. pneumoniae PCI-602, 10^6 CFU/ml, MH agar, 37° C., 16 hours
[7] = S. aureus 209P NIHJ-JCl, 10^6 CFU/ml, MH agar, 37° C., 16 hours
[8] = S. aureus 109P NIHJ-JCl, 10^6 CFU/ml, MH agar, 37° C., 16 hours

Compound	MIC (S. aureus 209P NIHJ-JCl; 209P, 16 h) [µg/mL]	MIC (S. marcescens IAM 1184; IAM1184, 16 h) [µg/mL]	MIC (E. coli NIHJ JC2; NIHJJC2, 16 h) [µg/mL]	MIC (K. pneumoniae PCI-602; PCI602, 16 h) [µg/mL]	MIC (P. vulgaris HX-19; [2]) [µg/mL]	MIC (E. cloacae 963; [3]) [µg/mL]	MIC (S. marcescens IAM 1184; [4]) [µg/mL]	MIC (E. coli NIHJ JC2; [5]) [µg/mL]	MIC (K. pneumoniae PCI-602; [6]) [µg/mL]	also measured
CO/N=C(\C(=O)N[C@@H]1C(=O)N2C(C(=O)[O-])=C(OCc3nc(C)cs3)CS[C@H]12)c1csc(N)n1.[Na+] [Example 16, Sodium 7β-[2-(2-aminothiazol-4-yl)-(Z)-2-methoxyiminoacetamido]-3-(4-methylthiazol-2-ylmethoxy)-3-cephem-4-carboxylate]	3.12	0.2	0.2	< 0.006	–	–	–	–	–	MIC (P. vulgaris HX-19; HX19, 16 h): < 0.006 µg/mL; MIC (E. cloacae 963; [1]): 0.2 µg/mL
C[n+]1ccc(COC2=C(C(=O)[O-])N3C(=O)[C@@H](NC(=O)/C(=N\OC(C)(C)C(=O)O)c4csc(N)n4)[C@H]3SC2)cc1 [Example 36, Sodium 7β-[2-(2-aminothiazol-4-yl)-(Z)-2-(1-carboxylato-1-methylethoxyimino)acetamido]-3-(1-methy-4-pyridiniomethoxy)-3-cephem-4-carboxylate]	–	–	–	–	0.05	0.05	0.025	0.05	0.0125	MIC (S. aureus 109P NIHJ-JCl; 16 h): 6.25 µg/mL
CO/N=C(\C(=O)N[C@@H]1C(=O)N2C(C(=O)[O-])=C(c3csnn3)CS[C@H]12)c1csc(N)n1.[Na+] [Example 18, Sodium 7δ-[2-(2-aminothiazol-4-yl)-(Z)-2-methoxyiminoacetamido]-3-(1,2,3-thiadiazol-4-yl)-3-cephem-4-carboxylate]	–	–	–	–	–	–	–	–	–	Minimum Inhibitory Concentration (MIC) (P. vulgaris HX-19; P. vulgaris HX-19, 10^6 CFU/ml, MH agar, 37° C., 16 hours): 0.100 µg/mL; Minimum Inhibitory Concentration (MIC) (S. aureus 209P NIHJ-JCl; [7]): 3.12 µg/mL; Minimum Inhibitory Concentration (MIC) (E. cloacae 963; E. cloacae 963, 10^6 CFU/ml, MH agar, 37° C., 16 hours): 0.390 µg/mL; Minimum Inhibitory Concentration (MIC) (S. marcescens IAM 1184; S. marcescens IAM 1184, 10^6 CFU/ml, MH agar, 37° C., 16 hours): 0.390 µg/mL; Minimum Inhibitory Concentration (MIC) (E. coli NIHJ JC2; E. coli NIHJ JC2, 10^6 CFU/ml, MH agar, 37° C., 16 hours): 0.390 µg/mL; Minimum Inhibitory Concentration (MIC) (K. pneumoniae PCI-602; K. pneumoniae PCI-602, 10^6 CFU/ml, MH agar, 37° C., 16 hours): 0.0125 µg/mL
CC(C)(O/N=C(\C(=O)N[C@@H]1C(=O)N2C(C(=O)O)=C(OCc3ccncc3)CS[C@H]12)c1csc(N)n1)C(=O)O [Example 4, Disodium 7β-[2-(2-aminothiaxol-4-yl)-(Z)-2-(1-carboxylato-1-methylethoxyimino)acetamido]-3-(4-pyridylmethoxy)-3-cephem-4-carboxylate]	12.5	0.025	–	–	0.0125	0.039	–	0.39	0.05	–
CO/N=C(\C(=O)N[C@@H]1C(=O)N2C(C(=O)[O-])=C(OCc3cccc[n+]3C)CS[C@H]12)c1csc(N)n1 [Example 44, 7β-[2-(2-aminothiazol-4-yl)-(Z)-2-methoxyiminoacetamido]-3-(1-methyl-2-pyridiniomethoxy)-3-cephem-4-carboxylate]	–	–	–	–	0.2 (≈ 0.396 µM)	0.2 (≈ 0.396 µM)	0.2 (≈ 0.396 µM)	0.39 (≈ 0.773 µM)	0.05 (≈ 0.0991 µM)	MIC (S. aureus 109P NIHJ-JCl; [8]): 0.2 µg/mL (≈ 0.396 µM)
C=C(O/N=C(\C(=O)N[C@@H]1C(=O)N2C(C(=O)[O-])=C(OCc3cc[n+](C)cc3)CS[C@H]12)c1csc(N)n1)C(=O)O [Example 37, Sodium 7β-[2-(2-aminothiazol-4-yl)-(Z)-2-(1-carboxylatovinyloxyimino)acetamido]-3-(1-methyl-4-pyridiniomethoxy)-3-cephem-4-carboxylate]	–	–	0.025	< 0.006	0.025	0.025	< 0.006	–	–	MIC (S. aureus 109P NIHJ-JCl; 16 h): 1.56 µg/mL
CO/N=C(\C(=O)N[C@@H]1C(=O)N2C(C(=O)[O-])=C(OCc3ccncc3)CS[C@H]12)c1csc(N)n1.[Na+] [Example 1, Sodium 7β-[2-(2-aminothiazol-4-yl)-(Z)-2-methoxyiminoacetamido]-3-(4-pyridylmethoxy)-3-cephem-4-carboxylate]	0.78	0.1	0.2	< 0.006	–	–	–	–	–	MIC (P. vulgaris HX-19; HX19, 16 h): 0.05 µg/mL; MIC (E. cloacae 963; [1]): 0.2 µg/mL
C[n+]1ccc(COC2=C(C(=O)[O-])N3C(=O)[C@@H](NC(=O)/C(=N\OCc4ccccc4CC(=O)O)c4csc(N)n4)[C@H]3SC2)cc1 [Example 40, Sodium 7β-[2-(2-aminothiazol-4-yl)-(Z)-2-(2-carboxylatomethylbenzyloxyimino)acetamido]-3-(1-methyl-4-pyridiniomethoxy)-3-cephem-4-carboxylate]	–	–	–	–	0.0125	0.39	0.1	0.39	0.05	MIC (S. aureus 109P NIHJ-JCl; [8]): 1.56 µg/mL
NC(=O)c1ccc(COC2=C(C(=O)[O-])N3C(=O)[C@@H](NC(=O)/C(=N\OCC(=O)[O-])c4csc(N)n4)[C@H]3SC2)cc1.[Na+].[Na+] [Example 22, Disodium 7β-[2-(2-aminothiazol-4-yl)-(Z)-2-carboxylatomethoxyiminoacetamido]-3-(4-carbamoylbenzyloxy)-3-cephem-4-carboxylate]	50	0.0125	0.05	0.025	–	–	–	–	–	MIC (P. vulgaris HX-19; HX19, 16 h): 0.025 µg/mL; MIC (E. cloacae 963; [1]): 0.1 µg/mL
CO/N=C(\C(=O)N[C@@H]1C(=O)N2C(C(=O)O)=C(OCc3ccc(C(N)=O)cc3)CS[C@H]12)c1csc(N)n1 [Example 14, Sodium 7β-[2-(2-aminothiazol-4-yl)-(Z)-2-methoxyiminoacetamido]-3-(4-carbamoylbenzVloxy)-3-cephem-4-carboxylate]	–	–	–	–	0.05	0.2	0.1	0.39	< 0.006	MIC (S. aureus 209P NIHJ-JCl; [7]): 3.12 µg/mL
CO/N=C(\C(=O)N[C@@H]1C(=O)N2C(C(=O)[O-])=C(OCc3ccc(C#N)cc3)CS[C@H]12)c1csc(N)n1.[Na+] [Example 12, Sodium 7β-[2-(2-aminothiazol-4-yl)-(Z)-2-methoxyiminoacetamido]-3-(4-cyanobenzyloxy)-3-cephem-4-carboxylate]	0.78	0.39	0.78	0.0125	–	–	–	–	–	MIC (P. vulgaris HX-19; HX19, 16 h): 0.025 µg/mL; MIC (E. cloacae 963; [1]): 0.78 µg/mL
CCO/N=C(\C(=O)N[C@@H]1C(=O)N2C(C(=O)[O-])=C(OCc3cc[n+](CC(=O)O)cc3)CS[C@H]12)c1csc(N)n1 [Example 51, Sodium 7β-[2-(2-aminothiazol-4-yl)-(Z)-2-ethoxyiminoacetamido]-3-(1-carboxylatomethyl-4-pyridiniomethoxy)-3-cephem-4-carboxylate]	–	–	–	–	0.05	0.1	0.1	0.2	0.025	MIC (S. aureus 109P NIHJ-JCl; 16 h): 3.12 µg/mL
CO/N=C(\C(=O)N[C@@H]1C(=O)N2C(C(=O)[O-])=C(OCc3cc[n+](C)cc3)CS[C@H]12)c1csc(N)n1 [Example 32, 7β-[2-(2-aminothiazol-4-yl)-(Z)-2-methoxyiminoacetamido]-3-(1-methyl-4-pyridiniomethoxy)-3-cephem-4-carboxylate]	–	–	–	–	0.2 (≈ 0.396 µM)	0.1 (≈ 0.198 µM)	0.05 (≈ 0.0991 µM)	0.1 (≈ 0.198 µM)	0.025 (≈ 0.0495 µM)	MIC (S. aureus 109P NIHJ-JCl; [8]): 0.039 µg/mL (≈ 0.0773 µM)
C[n+]1ccc(COC2=C(C(=O)[O-])N3C(=O)[C@@H](NC(=O)/C(=N\OC(C(=O)O)c4ccc(O)c(O)c4)c4csc(N)n4)[C@H]3SC2)cc1 (single isomer, unassigned) [Example 38, Sodium 7β-[2-(2-aminothiazol-4-yl)-(Z)-2-(α-carboxylato-3,4-dihydroxybenzyloxyimino)acetamido]-3-(1-methyl-4-pyridiniomethoxy)-3-cephem-4-carboxylate (diastereisomer A)]	–	–	–	–	0.39	0.039	0.1	0.039	0.025	MIC (S. aureus 109P NIHJ-JCl; [8]): 0.039 µg/mL
